Reference: patent US11111232B2, “Substituted cyclobutylpyridine and cyclobutylpyrimidine compounds as indoleamine 2,3-dioxygenase (IDO) inhibitors” (MERCK SHARP & DOHME CORP., priority 2017, dated 2021)

What was measured:
Assay type in all cases: cell-based
[1] = molecular target: T1, TDO (Homo sapiens, UniProt P48775); assay: TDO cellular assay in frozen SW48 cells; settings: 300 uM L-tryptophan, about 48 hours, fluorescence readout
T1 construct: endogenous in cells; host or cells: SW48 cells (A2780 cells as low-TDO control)
T1 sequence (P48775 whole entry): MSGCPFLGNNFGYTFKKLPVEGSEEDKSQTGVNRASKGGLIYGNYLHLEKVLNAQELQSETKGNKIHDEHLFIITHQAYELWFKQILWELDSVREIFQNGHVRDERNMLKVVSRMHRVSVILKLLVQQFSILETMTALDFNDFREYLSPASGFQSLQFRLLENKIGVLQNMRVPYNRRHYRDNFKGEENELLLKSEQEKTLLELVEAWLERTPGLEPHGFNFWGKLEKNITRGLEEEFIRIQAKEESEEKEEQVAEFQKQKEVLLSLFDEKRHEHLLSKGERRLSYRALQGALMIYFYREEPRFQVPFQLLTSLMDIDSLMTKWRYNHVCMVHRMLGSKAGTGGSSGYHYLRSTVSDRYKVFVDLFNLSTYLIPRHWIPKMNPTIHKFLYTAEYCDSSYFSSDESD

[2] = molecular target: T2, IDO1 (Homo sapiens, UniProt P14902); assay: IDO1 cellular assay in Hela cells stimulated with IFNγ; settings: IFNγ 100 ng/mL, 300 uM L-tryptophan, about 48 hours, fluorescence readout
T2 sequence (P14902 whole entry): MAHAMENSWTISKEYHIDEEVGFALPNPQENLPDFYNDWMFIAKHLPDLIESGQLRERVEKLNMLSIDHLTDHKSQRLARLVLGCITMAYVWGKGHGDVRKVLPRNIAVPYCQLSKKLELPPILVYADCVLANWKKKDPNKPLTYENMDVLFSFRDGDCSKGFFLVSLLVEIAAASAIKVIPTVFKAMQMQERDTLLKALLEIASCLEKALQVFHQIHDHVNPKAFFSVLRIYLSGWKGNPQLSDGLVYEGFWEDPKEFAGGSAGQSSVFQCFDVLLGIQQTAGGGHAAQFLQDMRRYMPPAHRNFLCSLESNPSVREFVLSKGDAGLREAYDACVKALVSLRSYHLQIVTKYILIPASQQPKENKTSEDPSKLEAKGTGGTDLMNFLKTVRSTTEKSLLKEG

[3] = molecular target: T2, IDO1; assay: IDO1 human whole blood assay; parameters: Human whole blood was drawn in sodium heparin coated tubes from healthy internal donors; from tissue; host or cells: human whole blood from healthy donors, stimulated with LPS and IFNγ; settings: LPS and IFNγ 100 ng/mL, 18 h, kynurenine by LC/MS/MS
Procedure: IDO1Human Whole Blood Assay
Compounds to be tested were serially diluted in ten 3-fold steps in DMSO starting from 10 mM. […] LPS and IFNγ was prepared in RPMI to a 10× of final conc. (1000 ng/mL), final concentration is 100 ng/mL.
Human whole blood was drawn in sodium heparin coated tubes from healthy internal donors. […] of blood was transferred to each of the wells of a v-bottom 96 well plate. […] of compound was transferred from intermediate dilution plate, and incubated for 15 min. 30 μL from stimulants was then transferred to blood and mixed thoroughly. Plate was covered with breathable membrane and incubated at 37° C. for overnight (18 h).
On day 2 isotope labeled standard of kynurenine and tryptophan was made in water at 10× concentration and […] was added to the blood at […] final concentration. The assay plates were centrifuged at 300×G for 10 min with no brake to separate plasma from red blood cells. […] of plasma samples was removed without disturbing red blood cells. Plasma was diluted with RPMI in 1:1 ratio and proteins were precipitated out with two volume of Acetonitrile. The plates was centrifuged at 4000×G for 60 min. 20 mL of supernatant was carefully transferred to a 384 well plate contain 40 mL of 0.1% formic acid in water and analyzed by LC/MS/MS.
LC/MS/MS analyses were performed using Thermo Fisher's LX4-TSQ Quantum Ultra system. This system consists of four Agilent binary high-performance liquid chromatography (HPLC) pumps and a TSQ Quantum Ultra triple quadruple MS/MS instrument. For each sample, […] were injected onto an Atlantis T3 column (2.1 mm×150 mm, […]) from Waters. The mobile phase gradient pumped at 0.8 mL/min was used to elute the analytes from the column at 25° C. […] Mobile phase A consisted of 0.1% formic acid in water. Mobile phase B consisted of 0.1% of formic acid in acetonitrile. Data was acquired in positive mode using a HESI interface. The operational parameters for the TSQ Quantum Ultra instrument were a spray voltage of 4000 V, capillary temperature of 380° C., vaporizer temperature 400° C., shealth gas 60 arbitrary units, Aux gas 20 arbitrary units, tube lens 85 and collision gas 1.2 mTorr. […] The peak area was integrated by Xcalibur Quan software. The ratios between the kynurenine generated in the reaction and 2D6-Kynurenine spiked-in internal standard were used to generate percentage inhibition and IC50 values. Compounds were titrated and IC50′s were calculated by 4 parameter sigmoidal curve fitting formula.

O=C(Nc1ccc(C2(C(=O)Nc3ccc(F)cc3)CCC2)cn1)C1CCCCC1 [Example 15, N-(5-{1-[(4-fluorophenyl)carbamoyl]cyclobutyl}pyridin-2-yl) cyclohexanecarboxamide]
IC50 [1]: ≥ 10000 nM | IC50 [2]: 10 nM | IC50 [3]: 2010 nM
